Patent EP0011277A1, “Dechloromaytansinoids, their production and use and pharmaceutical compositions containing them” (priority 1978, dated 1980)
Values after ≈ are worked out from the molar mass of the structure shown. Like-named read-outs stand apart in the source and are kept apart here.

What was measured:
[1] = system: Tetrahymena pyriformis W; test: Antiprotozoal activity, growth inhibition by serial dilution method; assay type: cell-based; settings: read-out: Antiprotozoal activity MIC (μg/ml) Tetrahymena pyriformis W
Protocol: Antiprotozoal activity of compound (I) was assayed with Tetrahymena pyriformis W as the test organism and a medium composed of 20 g tryptose-peptone (Difoo Cc.), 1 g; yeast extract, 2 g glucose, 1000 mℓ distilled water, 10 mℓ IM phosphate buffer (pH 7.0) as the assay medium. The microorganism was incubated at 28°C for 44 to 48 hours and the growth inhibitory activity of compound (I) was assayed by the serial dilution method.

[2] = system: leukemia P-388; test: Antitumor therapeutic test in mice, leukemia P-388 (NCI protocol), life span prolongation; assay type: in vivo; settings: intraperitoneally once daily for 9 consecutive days
Protocol: (§1) Therapeutic tests were carried out in mice according to NCI-protocols 1,200 and 1,300, Cancer Chemother, Reports, Part 3, 1972, Vol.3, No.2, in which leukemia P-388 and melanoma B-16 tumor cells had been intraperitoneally transplanted, compound (I) being administered intraperitoneally once daily for 9 consecutive days.

[3] = system: melanoma B-16; test: Antitumor therapeutic test in mice, melanoma B-16 (NCI protocol), life span prolongation; assay type: in vivo; settings: intraperitoneally once daily for 9 consecutive days
Protocol: as §1

| Compound | MIC [1] | Antitumor activities P-388 (T/C %) ([2]; Dose 50 µg/kg) | Antitumor activities P-388 (T/C %) ([2]; Dose 100 µg/kg) | Antitumor activities P-388 (T/C %) ([2]; Dose 200 µg/kg) | Antitumor activities P-388 (T/C %) ([2]; Dose 400 µg/kg) | Antitumor activities B-16 (T/C %) ([3]; Dose 100 µg/kg) | Antitumor activities B-16 (T/C %) ([3]; Dose 200 µg/kg) | Antitumor activities B-16 (T/C %) ([3]; Dose 400 µg/kg) | Antitumor activities B-16 (T/C %) ([3]; Dose 800 µg/kg) | MIC ([1]; incubated at 28°C for 44 to 48 hours, serial dilution method) |
| --- | --- | --- | --- | --- | --- | --- | --- | --- | --- | --- |
| COc1cc2cc(c1)N(C)C(=O)CC(OC(=O)C1CCCCC1)C1(C)OC1C(C)C1CC(O)(NC(=O)O1)C(OC)/C=C/C=C(\C)C2 (stereo not shown) [dechloromaytansinol 3-cyclohexanecarboxylate] | 4 µg/mL (≈ 6.24 µM) |  |  |  |  |  |  |  |  |  |
| COc1cc2cc(c1)N(C)C(=O)CC(OC(=O)C(C)C)C1(C)OC1C(C)C1CC(O)(NC(=O)O1)C(OC)/C=C/C=C(\C)C2 (stereo not shown) [Dechloromaytansinol 3-isobutyrate, dechloromaytansinol 3-isobutyrate] |  | 168 T/C % | 189 T/C % | 193 T/C % | 224 T/C % | 150 T/C % | 152 T/C % | 174 T/C % | 214 T/C % |  |
| dechloromaytansine |  | 158 T/C % | 165 T/C % | 175 T/C % | 189 T/C % | 171 T/C % | 152 T/C % | 179 T/C % | 190 T/C % |  |
| COc1cc2cc(c1)N(C)C(=O)CC(OC(=O)Cc1ccccc1)C1(C)OC1C(C)C1CC(O)(NC(=O)O1)C(OC)/C=C/C=C(\C)C2 (stereo not shown) [Dechloromaytansinol 3-phenylacetate, dechloromaytansinol 3-phenylacetate] |  |  |  |  |  |  |  |  |  | 2 µg/mL (≈ 3.08 µM) |
| COc1cc2cc(c1)N(C)C(=O)CC(OC(=O)CCl)C1(C)OC1C(C)C1CC(O)(NC(=O)O1)C(OC)/C=C/C=C(\C)C2 (stereo not shown) [Dechloromaytansinol 3-chloroacetate, dechloromaytansinol 3-chloroacetate] | ≥ 4 µg/mL |  |  |  |  |  |  |  |  |  |
